Two molecules from US20220332710A1, “SOLID FORMS OF A GLYT1 INHIBITOR” (Boehringer Ingelheim International GmbH, priority 2019, published 2022) can be followed below.

This series can be described thus: Water sorption isotherm (dynamic vapor sorption). As to conditions: 25° C., maintained at 90% relative humidity for 6 hours under humid nitrogen purge. The series is classed as physicochemical. Here is the method: FIG. 11 is a water sorption isotherm showing the water-uptake of Form II of Coumpound 1 and amorphous Coumpound 1 when stored at 25° C. at different relative humidities.
As discussed above, the invention relates to crystalline forms of Coumpound 1 described herein as Form I, Form II, or Form III; and mixtures of at least two of Form I, Form II, or Form III (“the crystalline compounds of the invention”). WO2013017657 makes no mention of any crystalline form of Compound, any method for preparing a crystalline form of Coumpound 1, or any of the properties of the crystalline forms of Coumpound 1 described herein. The compounds of the invention have advantageous properties (e.g., improved stability and reproducibility) as compared to the amorphous form of Coumpound 1 described in Example 1 herein and WO2013017657. Improvements over the amorphous form include, for example, lower hygroscopicity and decreased tendency to convert to a different solid form. For example, the water-uptake of amorphous Coumpound 1 at 25° C. is 1.4% when maintained at 90% relative humidity for 6 hours under humid nitrogen purge. […]
Water sorption isotherms are determined using a dynamic vapor sorption system (Advantage, DVS, London, UK). […]

In the case of `CC(Oc1ccc(S(C)(=O)=O)cc1C(=O)N1CC2C[C@]2(c2cc(C(F)(F)F)on2)C1)C(F)(F)F` (some centres unmarked) [Form II of Coumpound 1], the water-uptake entry is recorded as “about 0.04%”.
Then `CC(Oc1ccc(S(C)(=O)=O)cc1C(=O)N1CC2C[C@]2(c2cc(C(F)(F)F)on2)C1)C(F)(F)F` (some centres unmarked) [amorphous Coumpound 1], with 1.4%.
